The values that follow come from ChEMBL document CHEMBL5131384, “Design, synthesis, and biological evaluation of indole-based hydroxamic acid derivatives as histone deacetylase inhibitors” (Eur J Med Chem, 2022).

For one test, the target named is Histone deacetylase 1 (Homo sapiens, UniProt Q13547). Kind of test: Inhibition of HDAC1 (unknown origin) using Boc-Lys(Ac)-AMC as substrate incubated for 60 mins by fluorescence plate reader assay.
The target of test [1] is T1, Protein deacetylase HDAC6 (Homo sapiens, UniProt Q9UBN7).
T1 sequence (Q9UBN7 whole entry): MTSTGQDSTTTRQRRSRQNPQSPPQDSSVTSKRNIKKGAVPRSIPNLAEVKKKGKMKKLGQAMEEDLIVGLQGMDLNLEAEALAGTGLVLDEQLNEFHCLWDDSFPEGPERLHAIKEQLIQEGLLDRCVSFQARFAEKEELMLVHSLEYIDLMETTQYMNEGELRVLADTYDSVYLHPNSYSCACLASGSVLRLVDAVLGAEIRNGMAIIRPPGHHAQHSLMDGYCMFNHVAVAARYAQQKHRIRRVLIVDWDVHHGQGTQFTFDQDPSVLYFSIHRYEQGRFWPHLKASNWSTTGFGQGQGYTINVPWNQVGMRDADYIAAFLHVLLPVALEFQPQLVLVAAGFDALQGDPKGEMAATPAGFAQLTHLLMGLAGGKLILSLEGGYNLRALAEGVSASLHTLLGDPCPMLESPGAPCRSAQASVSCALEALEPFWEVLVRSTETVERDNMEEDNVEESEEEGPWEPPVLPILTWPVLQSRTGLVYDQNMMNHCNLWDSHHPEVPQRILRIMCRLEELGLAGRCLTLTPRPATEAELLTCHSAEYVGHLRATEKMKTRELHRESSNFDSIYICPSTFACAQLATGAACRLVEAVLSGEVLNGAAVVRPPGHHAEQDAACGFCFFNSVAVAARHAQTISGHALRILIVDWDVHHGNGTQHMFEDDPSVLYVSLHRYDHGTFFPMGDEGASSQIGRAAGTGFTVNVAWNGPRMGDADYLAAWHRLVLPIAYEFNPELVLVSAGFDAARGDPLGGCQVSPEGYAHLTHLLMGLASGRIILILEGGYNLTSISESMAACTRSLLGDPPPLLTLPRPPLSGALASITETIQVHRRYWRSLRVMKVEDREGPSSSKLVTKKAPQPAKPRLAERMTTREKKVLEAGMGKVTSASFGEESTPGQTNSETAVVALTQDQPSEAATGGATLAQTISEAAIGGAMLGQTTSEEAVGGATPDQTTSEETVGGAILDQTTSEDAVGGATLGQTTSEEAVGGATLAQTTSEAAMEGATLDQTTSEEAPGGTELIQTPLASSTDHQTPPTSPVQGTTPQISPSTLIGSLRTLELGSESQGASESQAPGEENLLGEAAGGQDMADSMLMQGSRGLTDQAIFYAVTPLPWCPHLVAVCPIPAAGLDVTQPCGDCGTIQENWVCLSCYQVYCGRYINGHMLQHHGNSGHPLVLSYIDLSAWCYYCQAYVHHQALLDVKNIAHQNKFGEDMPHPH
Kind of test: Inhibition of HDAC6 (unknown origin) using Boc-Lys(Ac)-AMC as substrate incubated for 60 mins by fluorescence plate reader assay.

The test system of a further test is A549. Kind of test: Antiproliferative activity against human A549 cells assessed as reduction in cell viability incubated for 72 hrs by WST-8 assay. In kind it is functional, cell-based. Conditions: A549, 72 h.
A further test has as its system MDA-MB-231. In words: Antiproliferative activity against human MDA-MB-231 cells assessed as reduction in cell viability incubated for 72 hrs by WST-8 assay. Conditions: MDA-MB-231, 72 h. In kind it is functional, cell-based.
In a further test the test system is SGC-7901. Kind of test: Antiproliferative activity against human SGC-7901 cells assessed as reduction in cell viability incubated for 72 hrs by WST-8 assay. In kind it is functional, cell-based. The settings on record: SGC-7901, 72 h.
Test [2] relates to HCT-116. Kind of test: Antiproliferative activity against human HCT-116 cells assessed as reduction in cell viability incubated for 72 hrs by WST-8 assay. In kind it is functional, cell-based. Conditions: HCT-116, 72 h.
In a further test the test system is HL-60. In words: Antiproliferative activity against human HL-60 cells assessed as reduction in cell viability incubated for 72 hrs by WST-8 assay. In kind it is functional, cell-based. The settings on record: HL-60, 72 h.
In test [3] the test system is HCT-116. In words: Induction of apoptosis in human HCT-116 cells assessed as early apoptotic cells at 1 uM incubated for 48 hrs by Annexin V-FITC/propidium iodide staining-based flow cytometric analysis (reference value: 1.73 %). In kind it is functional.
Test [4] has as its system HCT-116. Kind of test: Induction of apoptosis in human HCT-116 cells assessed as late apoptotic cells at 1 uM incubated for 48 hrs by Annexin V-FITC/propidium iodide staining-based flow cytometric analysis (reference value: 5.80 %). The test is classed as functional.
Test [5] relates to HCT-116. In words: Induction of cell cycle arrest in human HCT-116 cells assessed as increase in accumulation of cells at G2/M phase at 1 uM incubated for 24 hrs by flow cytometry analysis. In kind it is functional, cell-based.
For test [6], the system named is HCT-116. In words: Induction of cell cycle arrest in human HCT-116 cells assessed as decrease in accumulation of cells at S phase at 1 uM incubated for 24 hrs by flow cytometry analysis. The test is classed as functional, cell-based.

Structures are written as SMILES. Active and inactive are the calls of the source. The rule behind the calls is not given here.

Chain of Histone deacetylase 1 (Q13547 whole entry): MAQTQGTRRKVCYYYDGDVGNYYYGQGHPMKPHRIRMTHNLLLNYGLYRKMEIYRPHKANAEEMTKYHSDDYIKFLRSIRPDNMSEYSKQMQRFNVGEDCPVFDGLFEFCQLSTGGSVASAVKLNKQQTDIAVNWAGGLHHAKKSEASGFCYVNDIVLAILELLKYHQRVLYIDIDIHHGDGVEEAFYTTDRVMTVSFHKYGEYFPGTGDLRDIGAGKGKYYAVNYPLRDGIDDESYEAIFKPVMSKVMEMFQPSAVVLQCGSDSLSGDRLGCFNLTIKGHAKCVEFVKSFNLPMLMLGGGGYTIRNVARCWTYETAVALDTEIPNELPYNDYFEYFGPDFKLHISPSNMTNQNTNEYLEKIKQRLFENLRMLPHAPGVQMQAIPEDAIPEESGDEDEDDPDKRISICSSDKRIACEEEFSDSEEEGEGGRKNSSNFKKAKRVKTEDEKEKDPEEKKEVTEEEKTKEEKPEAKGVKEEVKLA

On to `O=C(CCCCCn1cc(C(=O)NC2C3CC4CC(C3)CC2C4)c2ccccc21)NO` (configuration not stated), for which the IC50 on Histone deacetylase 1 worked out at 67.4 nM; in test [1] it was 10.4 nM.

In the case of `O=C(CCCCCCn1c(C(=O)NC2C3CC4CC(C3)CC2C4)cc2ccccc21)NO` (configuration not stated), the IC50 against Histone deacetylase 1 was determined as 2.1 nM; in [1], 2.43 nM; in the test with A549, 60800 nM; in the test on MDA-MB-231, 42600 nM; in the test with SGC-7901 it was 6800 nM; in the test on HCT-116 [2], 13800 nM. Besides, the IC50 with HL-60 worked out at 5740 nM.

`CC(=O)SCCCCCCn1cc(C(=O)NC2C3CC4CC(C3)CC2C4)c2ccccc21` (configuration not stated): the IC50 (on Histone deacetylase 1; in test [1]) was over 1000 nM each time.

Regarding `O=C(CCCCCCn1cc(C(=O)Nc2ccc(Cl)cc2Cl)c2ccccc21)NO`, the IC50 against Histone deacetylase 1 turned out to be 2.53 nM; in test [1], 3.73 nM; in the test on A549, 47000 nM; in the test on MDA-MB-231 it was 16200 nM; in the test on SGC-7901, 2590 nM; with HCT-116 [2] it was 4500 nM. In addition, in the test with HL-60, the IC50 came to 10500 nM.

Regarding `O=C(NC1C2CC3CC(C2)CC1C3)c1cn(CCCCCCCS)c2ccccc12` (configuration not stated), the IC50 against Histone deacetylase 1 is 188 nM; in test [1], 232 nM.

Consider `CC(=O)SCCCCCCCn1cc(C(=O)NC2C3CC4CC(C3)CC2C4)c2ccccc21` (configuration not stated), for which the IC50 (against Histone deacetylase 1; in test [1]) was over 1000 nM throughout.

Turning to `O=C(CCCCCCn1nc(C(=O)NC2C3CC4CC(C3)CC2C4)c2ccccc21)NO` (configuration not stated), the IC50 on Histone deacetylase 1 worked out at 2.96 nM; in test [1], 2.72 nM.

In the case of `O=C(CCCCCCn1c(C(=O)NC2C3CC4CC(C3)CC2C4)cc2ccc(Br)cc21)NO` (configuration not stated), the IC50 against Histone deacetylase 1 was determined as 3.16 nM; in [1], 4.64 nM; in the test with A549, 920 nM; with MDA-MB-231, 1770 nM; in the test with SGC-7901, 180 nM; with HCT-116 [2], 630 nM. Moreover, the IC50 in the test on HL-60 came to 510 nM.

For `O=C(CCCCCCn1cc(C(=O)NC2CCCCCCC2)c2ccccc21)NO`, the IC50 on Histone deacetylase 1 was 1.31 nM; in test [1], 1.8 nM; in the test with A549, over 100000 nM; in the test with MDA-MB-231 it was over 100000 nM; with SGC-7901, 67000 nM; in the test on HCT-116 [2], over 100000 nM. Also, in the test on HL-60, the half-maximal inhibitory concentration (IC50) was 21500 nM.

With `O=C(CCCCCCC(=O)Nc1ccccc1)NO` [VORINOSTAT], the IC50 in the test on HCT-116 [2] came to 3590 nM. The Activity in the test on HCT-116 [3] was determined as 3.2%; in the test with HCT-116 [4] it was 36.2%. For the same compound, the result in the test on HCT-116 [5] and in the test with HCT-116 [6] was Active.

On to `O=C(NC1C2CC3CC(C2)CC1C3)c1cn(CCCCCCS)c2ccccc12` (configuration not stated), for which the IC50 against Histone deacetylase 1 was 169 nM; in [1] it was 19 nM.

With `O=C(CCCCCCn1cc(C(=O)NC2CCCCCC2)c2ccccc21)NO`, the IC50 at Histone deacetylase 1 worked out at 2 nM; in test [1], 2.11 nM.

For the compound `O=C(CCCCCCn1cc(C(=O)NC2C3CC4CC(C3)CC2C4)c2ccccc21)NO` (configuration not stated), the IC50 on Histone deacetylase 1 worked out at 2.04 nM; in test [1], 1.7 nM.

For the compound `O=C(CCCCCCn1c(C(=O)NC2C3CC4CC(C3)CC2C4)nc2ccccc21)NO` (configuration not stated), the IC50 at Histone deacetylase 1 worked out at 1.68 nM; in test [1] it was 5.25 nM.

Turning to `O=C(CCCCn1cc(C(=O)NC2C3CC4CC(C3)CC2C4)c2ccccc21)NO` (configuration not stated), the IC50 against Histone deacetylase 1 is 53.6 nM; in test [1], 39.9 nM.

With `O=C(CCCCCCn1cc(C(=O)NC2CCCCC2)c2ccccc21)NO`, the IC50 is 1.56 nM against Histone deacetylase 1; 2.32 nM in test [1]; over 100000 nM with A549; over 100000 nM in the test on MDA-MB-231; 25400 nM in the test on SGC-7901; 15000 nM in the test with HCT-116 [2]. Also, the IC50 in the test with HL-60 is 8500 nM.

Turning to `O=C(CCCCCCn1cc(C(=O)NCc2ccc(Cl)cc2)c2ccccc21)NO`, the IC50 at Histone deacetylase 1 was 2.31 nM; in test [1], 1.56 nM; in the test with A549 it was over 100000 nM; in the test on MDA-MB-231, over 100000 nM; in the test with SGC-7901, over 100000 nM; in the test on HCT-116 [2], over 100000 nM. In the test on HL-60, the IC50 was determined as 72900 nM.

Consider `O=C(CCCCCCn1cc(C(=O)NC23CC4CC(CC(C4)C2)C3)c2ccccc21)NO`, for which the IC50 is 1.16 nM against Histone deacetylase 1; 1.92 nM in test [1]; over 100000 nM with A549; 20800 nM in the test with MDA-MB-231; 14700 nM in the test on SGC-7901; 45000 nM in the test on HCT-116 [2]. For the same compound, the IC50 in the test on HL-60 was determined as 1050 nM.

As for `O=C(CCCCCCn1c(C(=O)NC2C3CC4CC(C3)CC2C4)cc2cc(Cl)ccc21)NO` (configuration not stated), the IC50 at Histone deacetylase 1 worked out at 2.16 nM; in test [1], 6.84 nM.

As to `O=C(NO)c1ccc(Cn2cc(C(=O)NC3C4CC5CC(C4)CC3C5)c3ccccc32)cc1` (configuration not stated), the IC50 worked out at 115 nM against Histone deacetylase 1 and 5.29 nM in test [1].

On to `O=C(CCCCCCn1cc(C(=O)N2CCOCC2)c2ccccc21)NO`, for which the results for the IC50 (at Histone deacetylase 1; in [1]) were 8.95 nM and 7.59 nM, respectively.

On to `O=C(/C=C/c1ccc(Cn2cc(C(=O)NC3C4CC5CC(C4)CC3C5)c3ccccc32)cc1)NO` (configuration not stated), for which the values for the IC50 (against Histone deacetylase 1; in [1]) were 143 nM and 73.3 nM, respectively.
